Test results as given in publication PMC6753678, “Fueling Open Innovation for Malaria Transmission-Blocking Drugs: Hundreds of Molecules Targeting Early Parasite Mosquito Stages” (Frontiers in Microbiology, 2019).
pIC50: −log10 of the molar value. Where two headings read alike, the source gives them in different places.

Columns and labels:
[1] = system: 3D7-strain P. falciparum asexual parasites; assay: P. falciparum asexual growth inhibition assay (Pf GIA); type: cell-based, Plasmodium falciparum; conditions: dose response confirmation; read-out: Pf asexual growth inhibition assays IC50
Method: The asexual activity of active compounds was tested in dose response with parasite lactate dehydrogenase (LDH) activity used as a readout of parasite viability as described in [Gamo et al. (2010)]. Briefly, 3D7-strain P. falciparum asexual parasites were diluted to 0.25% parasitemia, 2% hematocrit in culture medium composed of RPMI medium with 25 mM HEPES, 2% D-sucrose, 0.3% L-glutamine, 150 μM hypoxanthine plus 5% albumax. 25 μl of parasite inoculum was then dispensed into each well of a 384 well plate containing test compounds and positive (50 μM chloroquine) and negative (DMSO) controls. Plates were incubated for 72 h at 37°C in a 5% CO2, 5%O2, 90% N2 environment before being frozen at −70°C. Plates were then thawed and 70 μl of reaction mix (143 mM sodium L-lactate, 143 mM 3-acetyl pyridine adenine dinucleotide, […] Nitro Blue tetrazolium chloride, […] diaphorase (2.83 U/ml), 0.7% Tween 20, 100 mM Tris–HCl pH 8.0) was added to each well using a Multidrop Combi automated dispenser. Plates were shaken to mix and then absorbance at 650 nm was measured after 10 min incubation at room temperature. Percent inhibition of asexual growth was then calculated with respect to positive and negative controls. Data presented is the mean of three independent biological replicates.

HepG2 cells = assay: HepG2 cytotoxicity assay; conditions: for pIC50: read-out: HepG2 cytotoxicity assay IC50, dose response confirmation; for Pb ODA (this manuscript) HepG2 cytoxicity: HepG2 cytotoxicity listed with the Pb ODA data set (this manuscript)
Method: Briefly, HepG2 cells were seeded onto compound-treated 384 well plates at a density of 2,500 cells per well in Minimal Essential Medium (MEM) plus 10% fetal bovine serum and 1% non-essential amino acids solution (NEAA). Cells were incubated with test compounds or 50 μM doxorubicin (positive) and DSMO (negative) controls at 37°C for 48 h in a humidified 5% CO2 atmosphere. […] Cell viability was then measured in a fluorescent plate reader and percent inhibition calculated with respect to positive and negative controls.

[2] = system: P. berghei ookinete development; conditions: for % inhibition, Replicate A / % inhibition, Replicate B: primary screen at 1 μM
[3] = unified HepG2 value across the three screens
[4] = read-out: Pb Ookinete development assay IC50, dose response confirmation
[5] = read-out: Pb ODA (this manuscript) IC50, P. berghei ookinete development assay, this manuscript
[6] = HepG2 values of the three screens unified
[7] = read-out: Pb ODA IC50, this manuscript

Structure (SMILES) | pIC50 [1] | pIC50 (HepG2 cells) | Unified cytotox (HepG2 cells; [3]) [µM] | Is compound selective in assay? Pb ODA active? ([2]; 1: YES, 0: NO) | % inhibition, Replicate A [2] [%] | % inhibition, Replicate B [2] [%] | pIC50 [2, 4] | Pb ODA (this manuscript) HepG2 cytoxicity (HepG2 cells) [µM] | Is compound selective in assay? Pb ODA active? [2] | pIC50 [2, 5] | HepG2 cytoxicity (Pb ODA, this manuscript) (HepG2 cells) [µM] | Unified cytotox (HepG2 cells; [6]) [µM] | pIC50 [2, 7]
COCCn1c(-c2cccc(Cl)c2)nn(-c2ccc([N+](=O)[O-])cc2Cl)c1=S [TCMDC-135130] | 6.02 | 4.00 | 100.00 | 1 (1: YES) | 51.94 | 48.77 | 5.80 |  |  |  |  |  | 
Cc1nc(C)c(-c2ccc(Oc3ccc(OC(F)(F)F)cc3)cc2)c(OC(=O)c2ccccc2)c1Cl [TCMDC-137380] | 6.76 | 4.43 |  |  | 56.36 | 103.63 | 6.07 | 37.58 | 1 (key: 1: YES; 0: NO) |  |  |  | 
Cc1[nH]c(C)c(-c2ccc(S(=O)(=O)c3ccc(Cl)cc3)cc2)c(=O)c1Br [TCMDC-137414] | 7.18 | 4.00 |  |  | 109.11 | 112.52 | 6.95 | 100.00 | 1 (key: 1: YES; 0: NO) | 6.96 |  |  | 
Cl.O=C1CSc2ccc(CNC3CCN(CCc4c(Cl)cnc5ccc(F)cc45)CC3)nc2N1 [TCMDC-141960] | 6.68 | 4.41 |  | 1 (1: YES) | 68.86 | 55.86 | 5.52 |  |  |  | 38.90 | 38.90 | 5.52
Cc1[nH]c(C)c(-c2ccc(-c3ccc(Cl)cc3)nc2)c(=O)c1Cl [TCMDC-136301] | 6.71 | 4.00 |  | 1 (1: YES) | 94.15 | 37.57 | 6.02 |  |  |  |  | 100.00 | 6.02
Cc1[nH]c2ccc(-c3ccccc3)cc2c(=O)c1Br [TCMDC-135426] | 6.87 | 4.00 | 100.00 | 1 (1: YES) | 84.59 | 99.51 | 5.90 |  |  |  |  |  | 5.90
O=c1nc(C=Cc2ccc(Br)cc2)oc2ccccc12 [TCMDC-123878] | 5.76 | 4.00 |  |  | 55.97 | 32.93 | 5.57 | 100.00 | 1 (key: 1: YES; 0: NO) | 5.57 |  |  | 
CCOC(=O)c1c(-c2ccccc2)nc2c(sc3ccccc32)c1O [TCMDC-131540] | 5.41 | 4.00 | 100.00 | 1 (1: YES) | 101.19 | 85.53 | 5.88 |  |  |  |  |  | 5.88
Br.CC(CCON1C(N)=NC(N)=NC1(C)C)c1ccc(Cl)c(Cl)c1 (centres unmarked) [TCMDC-123922] | > 9.70 | 9.00 |  | 0 (0: NO) | 47.79 | 55.73 | 5.24 |  |  |  | 0.001 | 0.001 | 5.24
Br.CC(C)(C)c1ccccc1OCCCON1C(=N)N=C(N)NC1(C)C [TCMDC-131751] | > 9.70 | 9.00 |  |  | 62.16 | 60.88 | 5.51 | 0.001 | 0 (key: 1: YES; 0: NO) | 5.51 |  |  | 
Br.CC(CCON1C(N)=NC(N)=NC1(C)C)c1ccc(Cl)cc1 (centres unmarked) [TCMDC-131721] | > 9.70 | 9.00 |  |  | 71.36 | 33.21 | 5.02 | 0.001 | 0 (key: 1: YES; 0: NO) | 5.02 |  |  | 
Cc1sc2ncnc(Sc3nc4ccccc4[nH]3)c2c1C [TCMDC-123835] | 6.13 | 4.00 | 100.00 | 1 (1: YES) | 69.92 | 40.18 | 6.04 |  |  |  |  |  | 6.04
O=C1C(c2ccccc2)=C(Nc2cccc(OC(F)(F)C(F)F)c2)c2ccccc21 [TCMDC-125498] | 7.17 | 4.00 |  |  | 29.02 | 52.36 | 5.86 | 100.00 | 1 (key: 1: YES; 0: NO) | 5.86 |  |  | 
CC[C@@]1(O)C(=O)OCc2c1cc1n(c2=O)Cc2c-1nc1cc3c(cc1c2CN1CCOCC1)OCO3.O=C(O)C(F)(F)F [TCMDC-131876] | 8.15 | 6.33 | 0.47 | 0 (0: NO) | 79.37 | 70.89 | 5.90 |  |  |  |  |  | 5.90
CCCCCCCc1cc(=O)c2ccccc2[nH]1 [TCMDC-132026] | 6.34 | 4.69 |  |  | 86.88 | 74.93 | 5.94 | 20.65 | 1 (key: 1: YES; 0: NO) | 5.94 |  |  | 
Cl.OCC(CO)(CO)NCc1ccc2c3c(cccc13)-c1ccccc1-2 [TCMDC-137877] | 5.71 | 5.02 | 9.55 | 1 (1: YES) | 56.61 | 22.47 | 6.25 |  |  |  |  |  | 6.25
Cc1nc(C)c(-c2ccc(Sc3ccc(Cl)cc3)cc2)c(O)c1Br [TCMDC-137404] | 7.28 | 4.00 |  |  | 89.90 | 109.40 | 7.11 | 100.00 | 1 (key: 1: YES; 0: NO) | 7.10 |  |  | 
CCCCCCCCCc1c(C)[nH]c2ccccc2c1=O [TCMDC-137268] | 6.77 | 4.17 |  |  | 77.84 | 91.25 | 6.41 | 67.61 | 1 (key: 1: YES; 0: NO) | 6.41 |  |  | 
CCCC(CCC)n1ccc2c3c(N)nc(N)nc3ccc21.Cl [TCMDC-137949] | > 9.70 | 8.77 |  | 0 (0: NO) | 42.83 | 73.31 | 5.56 |  |  |  | 0.0017 | 0.0017 | 5.56
CSc1ccc(C=CC(=O)NC(=O)c2ccccc2O)cc1 [TCMDC-123758] | 6.75 | 4.14 | 73.28 | 1 (1: YES) | 53.84 | 38.37 | 6.28 |  |  |  |  |  | 6.28
CC(C)CCN1CCC(Oc2ccc(NC(=O)c3cccs3)cc2Cl)CC1.O=C(O)C(F)(F)F [TCMDC-133974] | 6.18 | 4.67 |  |  | 38.26 | 57.89 | 5.84 | 21.38 | 1 (key: 1: YES; 0: NO) | 5.84 |  |  | 
Nc1nc(N)c2c(ccc3c2cnn3Cc2cccnc2)n1 [TCMDC-131932] | 8.89 | 7.26 |  |  | 68.89 | 58.00 | 5.62 | 0.055 | 0 (key: 1: YES; 0: NO) | 5.62 |  |  | 
COc1ccc2c(=O)c3ccc(OC)cc3[nH]c2c1 [TCMDC-132054] | 5.62 | 4.00 |  |  | 107.15 | 103.78 | 6.24 | 100.00 | 1 (key: 1: YES; 0: NO) | 6.24 |  |  | 
